Species on record: Rattus norvegicus
Experiment: DrugMatrix - Regimen: Daily Repeat
Type: toxicity, organism-based, Sprague-Dawley
Parameters: regimen Daily Repeat, gender Male, age 6-8 weeks
Conditions: in vivo, po, route oral GAVAGE, vehicle 100 % WATER; for HEMATOCRIT / HEMOGLOBIN / LEUKOCYTE COUNT / MEAN CORPUSCULAR HEMOGLOBIN / MEAN CORPUSCULAR HEMOGLOBIN CONCENTRATION / MEAN CORPUSCULAR VOLUME: tissue Blood; for ALANINE AMINOTRANSFERASE / ALBUMIN / ALKALINE PHOSPHATASE / ASPARTATE AMINOTRANSFERASE / BLOOD UREA NITROGEN / CARBON DIOXIDE / CHLORIDE / CHOLESTEROL / CREATINE PHOSPHOKINASE / CREATININE / LACTATE DEHYDROGENASE / LIPASE / PHOSPHORUS / TOTAL BILIRUBIN / TOTAL PROTEIN / URIC ACID: tissue Plasma
[1] = 0 mg/kg, 72 h, dose level Control, time 3 day
[2] = 0 mg/kg, 120 h, dose level Control, time 5 day
[3] = 58 mg/kg, 72 h, dose level Low, time 3 day
[4] = 58 mg/kg, 120 h, dose level Low, time 5 day

Compound: COc1cc2ncnc(Nc3ccc(F)c(Cl)c3)c2cc1OCCCN1CCOCC1 [GEFITINIB]
- HEMATOCRIT [1]: 42.62%
- HEMOGLOBIN [1]: 13.07 G/DL
- LEUKOCYTE COUNT [1]: 13.95 x10E3/uL
- MEAN CORPUSCULAR HEMOGLOBIN [1]: 21.47 pg
- MEAN CORPUSCULAR HEMOGLOBIN CONCENTRATION [1]: 30.62 G/DL
- MEAN CORPUSCULAR VOLUME [1]: 70.05 fL
- ALANINE AMINOTRANSFERASE [1]: 47.67 u/L
- ALBUMIN [1]: 3.8 G/DL
- ALKALINE PHOSPHATASE [1]: 369 u/L
- ASPARTATE AMINOTRANSFERASE [1]: 86.17 u/L
- BLOOD UREA NITROGEN [1]: 16.33 mg/dL
- CARBON DIOXIDE [1]: 37.33 mmol/L
- CHLORIDE [1]: 104.83 MEQ/L
- CHOLESTEROL [1]: 79.83 mg/dL
- CREATINE PHOSPHOKINASE [1]: 392.83 u/L
- CREATININE [1]: 0.68 mg/dL
- LACTATE DEHYDROGENASE [1]: 426.17 u/L
- LIPASE [1]: 11.67 u/L
- PHOSPHORUS [1]: 11 mg/dL
- TOTAL BILIRUBIN [1]: 0.55 mg/dL
- TOTAL PROTEIN [1]: 6.32 G/DL
- URIC ACID [1]: 0.0167 mg/dL
- HEMATOCRIT [2]: 46.82%
- HEMOGLOBIN [2]: 14.23 G/DL
- LEUKOCYTE COUNT [2]: 13.43 x10E3/uL
- MEAN CORPUSCULAR HEMOGLOBIN [2]: 20.55 pg
- MEAN CORPUSCULAR HEMOGLOBIN CONCENTRATION [2]: 30.38 G/DL
- MEAN CORPUSCULAR VOLUME [2]: 67.62 fL
- ALANINE AMINOTRANSFERASE [2]: 44.67 u/L
- ALBUMIN [2]: 3.8 G/DL
- ALKALINE PHOSPHATASE [2]: 417.83 u/L
- ASPARTATE AMINOTRANSFERASE [2]: 83 u/L
- BLOOD UREA NITROGEN [2]: 15.33 mg/dL
- CARBON DIOXIDE [2]: 38.83 mmol/L
- CHLORIDE [2]: 98.17 MEQ/L
- CHOLESTEROL [2]: 66.83 mg/dL
- CREATINE PHOSPHOKINASE [2]: 383.17 u/L
- CREATININE [2]: 0.72 mg/dL
- LACTATE DEHYDROGENASE [2]: 519.67 u/L
- LIPASE [2]: 4.83 u/L
- PHOSPHORUS [2]: 11.07 mg/dL
- TOTAL BILIRUBIN [2]: 0.55 mg/dL
- TOTAL PROTEIN [2]: 6.3 G/DL
- URIC ACID [2]: 0.0833 mg/dL
- HEMATOCRIT [3]: 45.2%
- HEMOGLOBIN [3]: 13.93 G/DL
- LEUKOCYTE COUNT [3]: 13.22 x10E3/uL
- MEAN CORPUSCULAR HEMOGLOBIN [3]: 21.17 pg
- MEAN CORPUSCULAR HEMOGLOBIN CONCENTRATION [3]: 30.87 G/DL
- MEAN CORPUSCULAR VOLUME [3]: 68.57 fL
- ALANINE AMINOTRANSFERASE [3]: 47.67 u/L
- ALBUMIN [3]: 3.63 G/DL
- ALKALINE PHOSPHATASE [3]: 348 u/L
- ASPARTATE AMINOTRANSFERASE [3]: 93.67 u/L
- BLOOD UREA NITROGEN [3]: 18 mg/dL
- CARBON DIOXIDE [3]: 36.33 mmol/L
- CHLORIDE [3]: 108 MEQ/L
- CHOLESTEROL [3]: 79.67 mg/dL
- CREATINE PHOSPHOKINASE [3]: 307.67 u/L
- CREATININE [3]: 0.7 mg/dL
- LACTATE DEHYDROGENASE [3]: 373.67 u/L
- LIPASE [3]: 10.67 u/L
- PHOSPHORUS [3]: 10.37 mg/dL
- TOTAL BILIRUBIN [3]: 0.37 mg/dL
- TOTAL PROTEIN [3]: 5.97 G/DL
- URIC ACID [3]: 0 mg/dL
- HEMATOCRIT [4]: 46.33%
- HEMOGLOBIN [4]: 14.27 G/DL
- LEUKOCYTE COUNT [4]: 14.5 x10E3/uL
- MEAN CORPUSCULAR HEMOGLOBIN [4]: 20.73 pg
- MEAN CORPUSCULAR HEMOGLOBIN CONCENTRATION [4]: 30.83 G/DL
- MEAN CORPUSCULAR VOLUME [4]: 67.23 fL
- ALANINE AMINOTRANSFERASE [4]: 52.67 u/L
- ALBUMIN [4]: 3.6 G/DL
- ALKALINE PHOSPHATASE [4]: 361.67 u/L
- ASPARTATE AMINOTRANSFERASE [4]: 94 u/L
- BLOOD UREA NITROGEN [4]: 17.33 mg/dL
- CARBON DIOXIDE [4]: 35.67 mmol/L
- CHLORIDE [4]: 100.33 MEQ/L
- CHOLESTEROL [4]: 85.33 mg/dL
- CREATINE PHOSPHOKINASE [4]: 299.67 u/L
- CREATININE [4]: 0.7 mg/dL
- LACTATE DEHYDROGENASE [4]: 423.67 u/L
- LIPASE [4]: 5.33 u/L
- PHOSPHORUS [4]: 11.87 mg/dL
- TOTAL BILIRUBIN [4]: 0.4 mg/dL
- TOTAL PROTEIN [4]: 6.07 G/DL
- URIC ACID [4]: 0.0333 mg/dL

From ChEMBL document CHEMBL3885881, “DrugMatrix”
